In PubChem BioAssay (NCI):
“And” between values parts separate entries of the source, which are not always exact repeats. Equal values may be shown once.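 The compound was tested at five concentrations on cells cultured in 96-well plates, with a 48-hour exposure period. GI50 is the concentration that inhibits growth by half. TGI: total growth inhibition.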

Experiments:
Assay in all cases: NCI-60 cell line screen, 48 h
SK-MEL-5 melanoma = system: SK-MEL-5 melanoma
COLO 205 colon = system: COLO 205 colon
U251 CNS = system: U251 CNS
KM12 colon = system: KM12 colon
HS 578T breast = system: HS 578T breast
UACC-62 melanoma = system: UACC-62 melanoma
MALME-3M melanoma = system: MALME-3M melanoma
NCI-H460 lung = system: NCI-H460 lung
A549 NSCLC = system: A549 NSCLC
HCT-116 colon = system: HCT-116 colon

SMILES | GI50 (SK-MEL-5 melanoma) | TGI (SK-MEL-5 melanoma) | GI50 (COLO 205 colon) | TGI (COLO 205 colon) | GI50 (U251 CNS) | TGI (U251 CNS) | GI50 (KM12 colon) | TGI (KM12 colon) | GI50 (HS 578T breast) | TGI (HS 578T breast) | GI50 (UACC-62 melanoma) | TGI (UACC-62 melanoma) | GI50 (MALME-3M melanoma) | TGI (MALME-3M melanoma) | GI50 (NCI-H460 lung) | TGI (NCI-H460 lung) | GI50 (A549 NSCLC) | TGI (A549 NSCLC) | GI50 (HCT-116 colon) | TGI (HCT-116 colon)
Clc1ccc(Nc2nnc(COc3ccccc3)c3ccccc23)cc1 | 1080 nM | 4.56 µM | 456 nM | 4.38 µM | 2930 nM | 7.47 µM | 2650 nM | 7.72 µM | 2.58 µM | 10.5 µM | 1240 nM | 5.69 µM | 1380 nM | 7.3 µM | 2.7 µM | 7.12 µM | 2.87 µM | 12.3 µM | 1070 nM | 4.83 µM
CN1CCN(CCCn2c3c(sc4ncccc43)c(=O)n3nnc(-c4ccccc4)c23)CC1 | 1650 nM | 3.05 µM | 4330 nM | 9.07 µM | 1860 nM | 3.3 µM | 1550 nM | 3.17 µM | 4.82 µM | 12.3 µM | 17600 nM | 33.8 µM | 6380 nM | 11.8 µM | 1.65 µM | 3.37 µM | 1.54 µM | 2.92 µM | 1720 nM | 3.31 µM
CCN1C(=O)N(CC)C2C1NN=c1s/c(=C\c3ccc(Br)cc3)c(=O)n12 (stereo unspecified) | 118 nM | 1.84 µM | 258 nM | – | 180 nM | > 54.2 µM | 60.4 nM | > 100 µM | 0.194 µM | > 100 µM | 55.7 nM | > 100 µM | 2390 nM | > 100 µM | 0.119 µM | > 100 µM | 0.313 µM | > 100 µM | 107 nM | > 100 µM
NC(=O)C1CCCN1Cc1ccc2c(c1)OCO2 (stereo unspecified) | – | > 100 µM | – | > 100 µM | – | > 100 µM | – | > 100 µM | – | > 100 µM | – | > 100 µM | – | > 100 µM | – | > 100 µM | – | > 100 µM | – | > 100 µM
COc1ccc(COc2ccc(Cc3cnc(N)nc3N)cc2OC)cc1 | 3430 nM | 7.66 µM | 4270 nM | 8.15 µM | 21400 nM | > 25 µM | 1030 nM | > 25 µM | > 23.4 µM | > 25 µM | 12000 nM | > 25 µM | > 5100 nM | > 25 µM | > 22.1 µM | > 25 µM | > 23.4 µM | > 25 µM | 14600 nM | > 25 µM
CC1(/C=C/c2ccc(-c3ccccc3)cc2)CCn2cnc3ncnc(c32)N1O (stereo unspecified) | 324 nM | 2.75 µM | 326 nM | 32.8 µM | 418 nM | 22 µM | 415 nM | 23.1 µM | 3.37 µM | 30.9 µM | 356 nM | 2.27 µM | 412 nM | 14.7 µM | 0.264 µM | 8.25 µM | 0.466 µM | 23.5 µM | 358 nM | 18.6 µM
CCN(Cc1c(F)cccc1C(F)(F)F)c1ccc(CO)c(Cl)c1 | 7810 nM | 23.2 µM | 2440 nM | 14 µM | 623 nM | 17.5 µM | 14100 nM | 29.4 µM | 18.3 µM | 42.1 µM | – | 12.6 µM | 15200 nM | 30.1 µM | 0.0894 µM | 17.2 µM | 5.56 µM | 23.1 µM | < 37.1 nM | 11.8 µM
CC(=O)OCc1cc[c]([Hg][Cl])o1 | 4380 nM | 15.9 µM | 1630 nM | 3.29 µM | 2000 nM | 5.02 µM | 16800 nM | 42.2 µM | 9.99 µM | 65.6 µM | 2590 nM | 11.3 µM | 1600 nM | 3.27 µM | 15.5 µM | 45.6 µM | 21.8 µM | 43.2 µM | 10100 nM | 24.3 µM
Cn1cc(-c2[nH]c3cc(NC(=O)[C@H](N)C4CCCCC4)cc4c3c2C=NNC4=O)cn1 | 696 nM and 550 nM | 13.1 µM and > 10 µM | 922 nM and 632 nM | 3.6 µM and > 6.26 µM | 418 nM and 415 nM | 12.9 µM and > 10 µM | 1660 nM and 950 nM | 12.7 µM and > 10 µM | 0.185 µM and 0.247 µM | 2.59 µM and 1.81 µM | 484 nM and 704 nM | 18.7 µM and > 10 µM | 2220 nM and 517 nM | 24.7 µM and > 10 µM | 4.11 µM and 3.59 µM | 19.9 µM and > 10 µM | 3.63 µM and 3.85 µM | 16.9 µM and > 10 µM | 399 nM and 561 nM | 10.9 µM and > 10 µM
CC(C)Cc1cc(-c2cccn2C)c(C#N)c(=O)[nH]1 | > 100000 nM | > 100 µM | > 100000 nM | > 100 µM | > 100000 nM | > 100 µM | > 100000 nM | > 100 µM | > 100 µM | > 100 µM | > 100000 nM | > 100 µM | > 100000 nM | > 100 µM | > 100 µM | > 100 µM | > 100 µM | > 100 µM | > 100000 nM | > 100 µM
S=C1NC(c2ccccc2)NC(c2ccccc2)S1 (stereo unspecified) | – | > 100 µM | – | > 100 µM | – | > 100 µM | – | > 100 µM | – | > 100 µM | – | > 100 µM | – | > 100 µM | – | 63.3 µM | – | > 100 µM | – | > 100 µM
OC(CBr)C(O)C(O)C(O)CBr (stereo unspecified) | > 100000 nM | > 100 µM | – | > 100 µM | – | > 100 µM | – | > 100 µM | – | > 100 µM | 19900 nM and 9750 nM | > 75.4 µM and 65.1 µM | – | > 100 µM | – | > 100 µM | – | > 100 µM | 37300 nM and > 100000 nM | > 100 µM
C=C1CC2(CC(c3ccccc3C)OC(c3ccccc3C)C2)OC1=O (stereo unspecified) | – | 3.97 µM | – | 3.68 µM | – | 25.9 µM | – | 6.06 µM | – | 5.43 µM | – | 3.23 µM | – | 3.29 µM | – | 14.2 µM | – | 19.4 µM | – | 3.21 µM
COc1cc2cc(C(=O)Nc3ccccc3)c(N)nc2cc1OC | 22800 nM | 88.8 µM | 34000 nM | > 100 µM | 43100 nM | > 100 µM | 46000 nM | > 100 µM | 62.8 µM | > 100 µM | 28600 nM | > 100 µM | 44300 nM | > 100 µM | 73.9 µM | > 100 µM | 63.1 µM | > 100 µM | 40400 nM | > 100 µM
